Read-outs that look alike come from different tables or passages of the source.

Our source for the Kd values is patent US20050197371A1, “Urea derivatives as PDGFR modulators” (Ambit Biosciences Corporation, priority 2003, published 2005).

The experiment addresses T1, PDGFRB(DKIN) (PDGFR-β) (Homo sapiens, UniProt P09619).
T1 construct: PDGFRB(DKIN)
The experiment in a line: Phage-display competitive binding assay, PDGFRB(DKIN). As for the experimental part:
The term “ND” represents non-determined values.
Briefly, T7 phage displaying human PDGFR-β were incubated with an affinity matrix coated with known PDGFR-β inhibitor in the presence of various concentrations of the soluble competitor molecules.

[1] abbreviates: T7 phage displaying human PDGFR-β, DKIN construct; read-out: Binding Assay: PDGFRB(DKIN).

Take `O=C(Nc1ccc(OCc2ccccc2)cc1)Nc1cc(C2CC2)nn1-c1ccccc1` [Compound H8]: the Kd under setting [1] fell in the range of 0.1 to 1 µM.
With `Cc1ccc(-n2nc(C(C)(C)C)cc2NC(=O)Nc2cc(C(C)(C)C)on2)cc1` [Compound H11], the Kd under setting [1] was in the range of 1 to 10 µM.
Same read-out and setting: to `Cc1ccc(-n2nc(C(C)(C)C)cc2NC(=O)Nc2ccc(Br)cc2C(F)(F)F)cc1` [Compound H13] belongs 1 to 10 µM; to `Cc1ccc(-n2nc(C(C)(C)C)cc2NC(=O)Nc2ccc(Cl)cc2)cc1` [Compound H14], 0.1 to 1 µM.
Still for that read-out and setting: in the case of `CN(Cc1cccc([N+](=O)[O-])c1)C(=O)Nc1cc(C(C)(C)C)on1` [Compound J3] it was 0.1 to 1 µM; in that of `COc1ccc(N(C)C(=O)N(C)c2cc(C(C)(C)C)no2)cc1` [Compound J8], above 10 µM; in that of `COc1ccc(N(C)C(=O)Nc2cc(C(C)(C)C)on2)cc1` [Compound J10], below 0.1 µM.
`CCOC(=O)NN(C(=O)Nc1cc(C(C)(C)C)on1)c1ccc(OC)cc1` [Compound J13]: the Kd under setting [1] was above 10 µM.
Same read-out and setting: in the case of `COc1ccc(N(N)C(=O)Nc2cc(C(C)(C)C)on2)cc1` [Compound J14] it was above 10 µM; in that of `CC(C)(C)c1cc(NC(=O)Nc2ccc(OCCN3CCOCC3)c3ccccc23)no1` [Compound K1], 0.1 to 1 µM; in that of `CC(C)(C)c1cc(NC(=O)Nc2ccc(NC(=O)c3cn4cc(Cl)ccc4n3)cc2)no1` [Compound N3], below 0.1 µM.
The same measure, in the same setting: to `CC(C)(C)c1cc(NC(=O)Nc2ccc(NC(=O)c3cccc(Cl)n3)cc2)no1` [Compound N4] belongs below 0.1 µM; to `Cn1nc(-c2ccccc2)c2cc(C(=O)Nc3ccc(NC(=O)Nc4cc(C(C)(C)C)[nH]n4)cc3)[nH]c21` [Compound N5], 0.1 to 1 µM.
On the same count and under the same terms, in the case of `CC(C)(C)c1cc(NC(=O)Nc2ccc(NC(=O)c3ncccc3C(N)=O)cc2)n[nH]1` [Compound N6] it was 0.1 to 1 µM; in that of `CC(C)(C)c1cc(NC(=O)Nc2ccc(NC(=O)c3cc([N+](=O)[O-])ccn3)cc2)no1` [Compound N7], below 0.1 µM.
With `CC(C)(C)c1cc(NC(=O)Nc2ccc(NC(=O)c3cccc(F)n3)cc2)no1` [Compound N8], the Kd under setting [1] is below 0.1 µM.
On to `CC(C)(C)c1cc(NC(=O)Nc2ccc(NC(=O)c3cn4nc(Cl)ccc4n3)cc2)no1` [Compound N9], for which, under setting [1], the Kd is below 0.1 µM.
On to `Cn1nc(C(C)(C)C)cc1C(=O)Nc1ccc(NC(=O)Nc2cc(C(C)(C)C)on2)cc1` [Compound N10], for which the Kd under setting [1] was in the range of 0.1 to 1 µM.
As to `Cn1nc(-c2ccccc2)c(C(=O)Nc2ccc(NC(=O)Nc3cc(C(C)(C)C)on3)cc2)c1Cl` [Compound N11], the Kd under setting [1] is above 10 µM.
The same measure, in the same setting: to `COC(=O)c1ccc(C(=O)Nc2ccc(NC(=O)Nc3cc(C(C)(C)C)on3)cc2)nc1` [Compound N12] belongs 0.1 to 1 µM; to `CC(C)(C)c1cc(NC(=O)Nc2ccc(NC(=O)C3=NCC=N3)cc2)no1` [Compound N13], below 0.1 µM.
Still for that read-out and setting: in the case of `CC(C)(C)c1cc(NC(=O)Nc2ccc(NC(=O)c3csnn3)cc2)no1` [Compound N14] it was 0.1 to 1 µM; in that of `Cc1nc(C(=O)Nc2ccc(NC(=O)Nc3cc(C(C)(C)C)on3)cc2)nn1-c1cc(Cl)cc(Cl)c1` [Compound N15], 0.1 to 1 µM.
Still for that read-out and setting: in the case of `CC(C)(C)c1cc(NC(=O)Nc2ccc(NC(=O)c3csc(-c4ccncc4)n3)cc2)no1` [Compound N16] it was below 0.1 µM; in that of `CC(C)(C)c1cc(NC(=O)Nc2ccc(NC(=O)c3cc4cc(Br)ccc4s3)cc2)no1` [Compound N17], below 0.1 µM.
On to `Cc1nnsc1C(=O)Nc1ccc(NC(=O)Nc2cc(C(C)(C)C)on2)cc1` [Compound N18], for which the Kd under setting [1] is 0.1 to 1 µM.
Still for that read-out and setting: in the case of `CC(C)(C)c1cc(NC(=O)Nc2ccc(NC(=O)c3c[nH]c(=O)nc3-c3ccncc3)cc2)no1` [Compound N19] it was 1 to 10 µM; in that of `Cn1cc(C(=O)Nc2ccc(NC(=O)Nc3cc(C(C)(C)C)on3)cc2)c(C(F)(F)F)n1` [Compound N20], 0.1 to 1 µM.
Still for that read-out and setting: to `COc1nc(C)cc(C)c1C(=O)Nc1ccc(NC(=O)Nc2cc(C(C)(C)C)on2)cc1` [Compound N22] belongs 0.1 to 1 µM; to `CC(C)(C)c1cc(NC(=O)Nc2ccc(NC(=O)c3ccccc3Cl)cc2)no1` [Compound N23], below 0.1 µM; to `CC(C)(C)c1cc(NC(=O)Nc2ccc(NC(=O)c3cccc(Br)c3)cc2)no1` [Compound N24], 1 to 10 µM.
Still for that read-out and setting: in the case of `CC(C)(C)c1cc(NC(=O)Nc2ccc(NC(=O)c3cccc(OC(F)F)c3)cc2)no1` [Compound N25] it was 0.1 to 1 µM; in that of `CC(C)(C)c1cc(NC(=O)Nc2ccc(NC(=O)c3ccc4ccccc4c3)cc2)no1` [Compound N28], below 0.1 µM.
With `CC(C)(C)c1cc(NC(=O)Nc2ccc(NC(=O)c3cc(Cl)cc(Cl)c3)cc2)no1` [Compound N29], the Kd under setting [1] lay within 0.1 to 1 µM.
The same measure, in the same setting: in the case of `CCc1ccc(C(=O)Nc2ccc(NC(=O)Nc3cc(C(C)(C)C)on3)cc2)cc1` [Compound N32] it was below 0.1 µM.
As for `CC(C)(C)c1cc(NC(=O)Nc2ccc(NC(=O)c3ccccc3)cc2)no1` [Compound N34], under setting [1], the Kd was below 0.1 µM.
Same read-out and setting: to `CC(C)(C)c1cc(NC(=O)Nc2ccc(NC(=O)Cc3ccccc3)cc2)no1` [Compound N35] belongs 0.1 to 1 µM; to `CC(C)(C)c1cc(NC(=O)Nc2ccc(NC(=O)c3c(F)cccc3F)cc2)no1` [Compound N37], 1 to 10 µM; to `CC(C)(C)c1cc(NC(=O)Nc2ccc(NC(=O)Cc3ccc(-c4ccccc4)cc3)cc2)no1` [Compound N38], 0.1 to 1 µM.
For `Cc1[nH]c(C(=O)Nc2ccc(NC(=O)Nc3cc(C(C)(C)C)on3)cc2)c(C)c1CCC(=O)O` [Compound N39], the Kd under setting [1] is below 0.1 µM.
Still for that read-out and setting: to `CC(C)(C)c1cc(NC(=O)Nc2ccc(NC(=O)/C=C/c3ccccc3Cl)cc2)no1` [Compound N40] belongs 0.1 to 1 µM.
Same read-out and setting: to `Cc1cccnc1C(=O)Nc1ccc(NC(=O)Nc2cc(C(C)(C)C)on2)cc1` [Compound N41] belongs below 0.1 µM; to `CC(C)(C)c1cc(NC(=O)Nc2ccc(NC(=O)C(N)Cc3ccccc3F)cc2)no1` (centres unmarked) [Compound N42], 0.1 to 1 µM.
On the same count and under the same terms, in the case of `CC(=O)c1c[nH]c(C(=O)Nc2ccc(NC(=O)Nc3cc(C(C)(C)C)on3)cc2)c1` [Compound N43] it was below 0.1 µM; in that of `CC(C)(C)c1cc(NC(=O)Nc2ccc(NC(=O)CC(N)c3ccccc3Cl)cc2)no1` (centres unmarked) [Compound N44], 1 to 10 µM.
Consider `CC(C)(C)c1cc(NC(=O)Nc2ccc(NC(=O)c3cnn(-c4cccc(Cl)c4)c3Br)cc2)no1` [Compound N45], for which the Kd under setting [1] lay in the range of 0.1 to 1 µM.
The same measure, in the same setting: to `COc1cc(OC)nc(Oc2ccccc2C(=O)Nc2ccc(NC(=O)Nc3cc(C(C)(C)C)on3)cc2)n1` [Compound N47] belongs 0.1 to 1 µM; to `COc1cc(OC)nc(Nc2cccc(C(=O)Nc3ccc(NC(=O)Nc4cc(C(C)(C)C)on4)cc3)c2)n1` [Compound N49], 0.1 to 1 µM.
For the compound `COc1ccnc(Nc2ccc(C(=O)Nc3ccc(NC(=O)Nc4cc(C(C)(C)C)on4)cc3)cc2)n1` [Compound N51], the Kd under setting [1] is below 0.1 µM.
As to `COc1cc(OC)nc(N(C)c2cccc(C(=O)Nc3ccc(NC(=O)Nc4ccon4)cc3)c2)n1` [Compound N53], the Kd under setting [1] was 0.1 to 1 µM.
Still for that read-out and setting: in the case of `CC(C)(C)c1cc(NC(=O)Nc2ccc(NC(=O)c3cc(N4CCOCC4)nc(N4CCOCC4)n3)cc2)no1` [Compound N54] it was below 0.1 µM; in that of `Cc1nc(C(=O)Nc2ccc(NC(=O)Nc3cc(C(C)(C)C)on3)cc2)c(C(F)(F)F)o1` [Compound N55], 0.1 to 1 µM.
Same read-out and setting: in the case of `COc1cc(OC)nc(Oc2cccnc2C(=O)Nc2ccc(NC(=O)Nc3cc(C(C)(C)C)on3)cc2)n1` [Compound N56] it was 1 to 10 µM; in that of `CC(C)c1cc(NC(=O)Nc2ccc(NC(=O)C3CCN(c4ncc(C(F)(F)F)cc4Cl)CC3)cc2)no1` [Compound N59], 0.1 to 1 µM.
The same measure, in the same setting: in the case of `CC(C)(C)c1cc(NC(=O)Nc2ccc(NC(=O)c3cc4cccc5c4n(c3=O)CC5)cc2)no1` [Compound N60] it was below 0.1 µM; in that of `CC(C)(C)c1cc(NC(=O)Nc2ccc(NC(=O)c3cc4cccnc4nc3C(F)(F)F)cc2)no1` [Compound N61], 1 to 10 µM.
On to `CC(C)(C)c1cc(NC(=O)Nc2ccc(NC(=O)C3=Cc4cc(F)cc(S(C)(=O)=O)c4C3)cc2)no1` [Compound N62], for which the Kd under setting [1] fell in the range of 1 to 10 µM.
On the same count and under the same terms, to `Cn1nc(C(F)(F)F)c2cc(C(=O)Nc3ccc(NC(=O)Nc4cc(C(C)(C)C)on4)cc3)sc21` [Compound N64] belongs above 10 µM; to `CC(=O)c1ccc(N2CCC(C(=O)Nc3ccc(NC(=O)Nc4cc(C(C)(C)C)on4)cc3)CC2)cc1` [Compound N65], 0.1 to 1 µM.
On the same count and under the same terms, to `CC(C)(C)c1cc(NC(=O)Nc2ccc(NC(=O)Cc3oc(-c4ccc(Cl)cc4)nc3-c3ccccc3)cc2)no1` [Compound N66] belongs 0.1 to 1 µM; to `Cn1nc(C(F)(F)F)c(C(=O)Nc2ccc(NC(=O)Nc3cc(C(C)(C)C)on3)cc2)c1Cl` [Compound N68], 0.1 to 1 µM; to `CC(C)(C)c1cc(NC(=O)Nc2ccc(NC(=O)c3ccccc3O)cc2)no1` [Compound N69], 1 to 10 µM.
Still for that read-out and setting: in the case of `COc1cc(OC)nc(Oc2ccccc2C(=O)Nc2ccc(NC(=O)Nc3cc(C(C)(C)C)on3)cc2)n1` [Compound N70] it was 1 to 10 µM.
For the compound `CC(C)(C)c1cc(NC(=O)Nc2ccc(NC(=O)c3nnsc3Oc3ccc(Cl)cc3)cc2)no1` [Compound N71], under setting [1], the Kd lay in the range of 1 to 10 µM.
The same measure, in the same setting: to `CC(C)(C)c1cc(NC(=O)Nc2ccc(NC(=O)CSCC(=O)Nc3ccccc3)cc2)no1` [Compound N72] belongs 0.1 to 1 µM.
Turning to `CC(C)(C)c1cc(NC(=O)Nc2ccc(NC(=O)c3cn4c(n3)sc3ccccc34)cc2)no1` [Compound N73], the Kd (read-out: Binding Assay: PDGFRB(DKIN); T7 phage displaying human PDGFR-β, DKIN construct) was below 0.1 µM.
On to `C=N/C(=N\C)Oc1cccc(C(=O)Nc2ccc(NC(=O)Nc3cc(C(C)(C)C)on3)cc2)c1` [Compound N74], for which, under setting [1], the Kd was below 0.1 µM.
Still for that read-out and setting: in the case of `CC(C)c1oc(Cl)nc1C(=O)Nc1ccc(NC(=O)Nc2cc(C(C)(C)C)on2)cc1` [Compound N75] it was below 0.1 µM.
